# Test results from patent publication US20110230478A1 (Bayer ScienceCrop AG, priority 2008, published 2011).
# Tests used:
# Fusarium proliferatum = assay: Production of Fumonisin FB1 by Fusarium proliferatum (microtitre plate, FB1 by HPLC-MS/MS, growth by OD); assay type: cell-based; conditions: for pI50 Fum: FB1 concentration in medium after 6 days at 20° C., HPLC-MS/MS; for pI50 growth: OD620 at the beginning and after 6 days
# [1] = logP by HPLC on reversed-phase columns (C 18), EEC Directive 79/831 Annex V.A8; assay type: physicochemical; conditions: for chromatographic logP: reversed-phase HPLC column (C 18), pH 2.3, pH 2.3, 0.1% aqueous phosphoric acid and acetonitrile, read-out: logP [a]
# Gibberella zeae = conditions: in vivo
# Fusarium graminearum = assay type: cell-based; conditions: 50 µM
# [2] = values marked [b], footnote not given
# [3] = method marker [b], footnote not given, compound 68 value matches logP (pH 2.3)
# [4] = values marked [c], footnote not given
SMILES,pI50 Fum (Fusarium proliferatum),pI50 growth (Fusarium proliferatum),"logP [1, 2]",chromatographic logP [1],other results
C=CCNC(=O)c1ccc(Nc2ncc(Cl)c(NC(C)COC)n2)cc1 (racemic) [Example 136],4.4,<4.3,1.64[b],,
CN(C)S(=O)(=O)c1cccc(Nc2ncc(Cl)c(NC(C)(C)C)n2)c1 [Example 51],,<4.3,,,"logP ([1]; method marker [a], footnote not given): 2.73[a]"
COCC(C)Nc1nc(Nc2ccc(OC)c(OC)c2)ncc1Br (stereo not drawn) [Example 74],4.6,<4.3,,,"logP [1, 3]: 1.55[b]"
COCC(C)Nc1nc(Nc2cccc(OC)c2)ncc1Br (stereo not drawn) [Example 109],4.7,<4.3,,,"logP [1, 3]: 1.9[b]"
COCC(C)Nc1nc(Nc2ccc(C(C)=O)cc2)ncc1Cl (stereo not drawn) [Example 152],5,<4.3,2.02[b],,
CSc1cccc(Nc2ncc(Cl)c(NC(C)C)n2)c1 [Example 173],4.8,<4.3,,,"efficacy (Gibberella zeae): ≥ 80%; logP ([1]; values marked [a], pH 2.3): 2.36[a];; logP [1, 4]: 3.89[c]"
CC(C)Nc1nc(Nc2ccc(CC(=O)C(C)(C)C)cc2)ncc1Cl [Example 199],,4.9,2.3[b],,
CNC(=O)Oc1cccc(Nc2ncc(Cl)c(NC(C)C)n2)c1 [Example 203],,4.6,1.53[b],,
CC(C)Nc1nc(Nc2cccc(O)c2)ncc1Cl [Example 214],6,<4.3,1.39[b],,
CCCC(CC)Nc1nc(Nc2ccccc2)ncc1Br (stereo not drawn) [Example 228],,<4.3,,,"logP ([1]; values marked [a], pH 2.3): 2.44[a]"
CCc1cccc(Nc2ncc(Cl)c(NC(C)C)n2)c1 [Example 230],,,2.33[b],,"growth inhibition of Fusarium graminearum (Fusarium graminearum): 86%; inhibitory activity of DON/AcDON (Fusarium graminearum): > 80%; logP [1, 4]: 4.25[c];"
CC(C)Nc1nc(Nc2ccc(C(=O)N(C)C)cc2)ncc1Cl [Example 234],5.3,4.6,1.44[b],,"logP [1, 4]: 2.27[c];"
"CC(C)N(C)S(=O)(=O)Cc1cccc([N+](=O)[O-])c1 [IV-2, N-methyl-N-(propan-2-yl)-1-(3-nitrophenyl)methanesulphonamide]",,,,2.35,
"CC(NS(=O)(=O)Cc1cccc([N+](=O)[O-])c1)c1ccccc1 (stereo not drawn) [IV-3, N-(1-phenylethyl)-1-(3-nitrophenyl)methanesulphonamide]",,,,2.63,
"O=[N+]([O-])c1cccc(CS(=O)(=O)NCc2ccccc2)c1 [IV-4, N-(benzyl)-1-(3-nitrophenyl)methanesulphonamide]",,,,2.43,
"CC(C)N(C)S(=O)(=O)Cc1cccc(N)c1 [IV-6, 1-(3-aminophenyl)-N-methyl-N-(propan-2-yl)methanesulphonamide]",,,,1.08,
"CC(NS(=O)(=O)Cc1cccc(N)c1)c1ccccc1 (stereo not drawn) [IV-7, 1-(3-aminophenyl)-N-(1-phenylethyl)methanesulphonamide]",,,,1.53,
"Nc1cccc(CS(=O)(=O)NCc2ccccc2)c1 [IV-8, 1-(3-aminophenyl)-N-benzylmethanesulphonamide]",,,,1.32,
"CCC(=O)N(C)c1cccc(N)c1 [IV-9, N-(3-aminophenyl)-N-methylpropanamide]",,,,0.63,
"N#Cc1cnc(Nc2ccccc2)nc1Cl [VIII-3, 4-Chloro-2-(phenylamino)pyrimidine-5-carbonitrile]",,,,2.66,
"CC(C)c1cccc(Nc2ncc(C(F)(F)F)c(Cl)n2)c1 [VIII-4, 4-Chloro-N-[3-(propan-2-yl)phenyl]-5-(trifluoromethyl)pyrimidine-2-amine]",,,,4.87,
